The values that follow come from patent US10633371B2, “EZH2 inhibitors and uses thereof” (Dana-Farber Cancer Institute, Inc., priority 2016, dated 2020).

One experiment has as its target EZH2 (Homo sapiens, UniProt Q15910). Description: Inhibitory activity and time dependence against EZH2 (FIG. 2A). It is filed as biochemical. Conditions: result in words. An excerpt:
(§1) As depicted in FIG. 2A, Compounds EZ-40, EZ-49, EZ-51, EZ-52, EZ-53, and JQ-80 were profiled for inhibitory activity and time dependence against EZH1 and EZH2.

A further experiment deals with EZH1 (Homo sapiens, UniProt Q92800). Description: Inhibitory activity and time dependence against EZH1 (FIG. 2A). Format: biochemical. Conditions: result in words.
Sequence of EZH1 (Q92800 whole entry): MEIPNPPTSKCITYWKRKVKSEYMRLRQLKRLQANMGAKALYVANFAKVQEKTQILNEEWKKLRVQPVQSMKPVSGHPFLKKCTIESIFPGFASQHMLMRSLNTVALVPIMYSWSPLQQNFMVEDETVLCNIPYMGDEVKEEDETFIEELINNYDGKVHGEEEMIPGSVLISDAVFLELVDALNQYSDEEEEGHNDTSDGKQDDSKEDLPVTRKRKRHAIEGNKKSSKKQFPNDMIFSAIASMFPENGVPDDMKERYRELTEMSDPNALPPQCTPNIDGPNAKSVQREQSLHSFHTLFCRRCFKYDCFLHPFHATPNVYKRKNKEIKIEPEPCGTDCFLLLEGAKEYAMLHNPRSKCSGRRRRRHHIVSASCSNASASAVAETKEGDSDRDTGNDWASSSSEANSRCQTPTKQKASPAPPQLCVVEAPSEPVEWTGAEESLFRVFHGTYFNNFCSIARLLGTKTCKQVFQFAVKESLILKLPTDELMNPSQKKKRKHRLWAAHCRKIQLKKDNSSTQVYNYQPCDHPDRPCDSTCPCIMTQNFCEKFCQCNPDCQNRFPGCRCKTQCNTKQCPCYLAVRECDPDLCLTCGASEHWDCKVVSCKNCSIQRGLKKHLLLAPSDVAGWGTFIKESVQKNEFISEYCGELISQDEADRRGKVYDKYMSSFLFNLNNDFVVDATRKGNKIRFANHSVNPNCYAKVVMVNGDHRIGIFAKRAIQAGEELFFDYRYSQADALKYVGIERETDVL
Sequence of EZH1 (O75530 whole entry partner): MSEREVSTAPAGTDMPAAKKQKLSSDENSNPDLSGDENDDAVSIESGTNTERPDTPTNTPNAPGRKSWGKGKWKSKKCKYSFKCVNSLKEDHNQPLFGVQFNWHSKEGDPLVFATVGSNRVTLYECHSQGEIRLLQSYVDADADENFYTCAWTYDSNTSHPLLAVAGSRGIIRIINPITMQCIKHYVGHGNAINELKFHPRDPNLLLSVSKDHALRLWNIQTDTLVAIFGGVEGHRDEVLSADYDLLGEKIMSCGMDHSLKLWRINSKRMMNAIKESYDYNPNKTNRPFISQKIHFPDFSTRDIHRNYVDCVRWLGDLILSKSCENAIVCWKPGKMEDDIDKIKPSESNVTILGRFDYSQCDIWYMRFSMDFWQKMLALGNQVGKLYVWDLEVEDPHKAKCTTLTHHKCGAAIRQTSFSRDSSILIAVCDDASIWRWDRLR
Sequence of EZH1 (Q15022 whole entry partner): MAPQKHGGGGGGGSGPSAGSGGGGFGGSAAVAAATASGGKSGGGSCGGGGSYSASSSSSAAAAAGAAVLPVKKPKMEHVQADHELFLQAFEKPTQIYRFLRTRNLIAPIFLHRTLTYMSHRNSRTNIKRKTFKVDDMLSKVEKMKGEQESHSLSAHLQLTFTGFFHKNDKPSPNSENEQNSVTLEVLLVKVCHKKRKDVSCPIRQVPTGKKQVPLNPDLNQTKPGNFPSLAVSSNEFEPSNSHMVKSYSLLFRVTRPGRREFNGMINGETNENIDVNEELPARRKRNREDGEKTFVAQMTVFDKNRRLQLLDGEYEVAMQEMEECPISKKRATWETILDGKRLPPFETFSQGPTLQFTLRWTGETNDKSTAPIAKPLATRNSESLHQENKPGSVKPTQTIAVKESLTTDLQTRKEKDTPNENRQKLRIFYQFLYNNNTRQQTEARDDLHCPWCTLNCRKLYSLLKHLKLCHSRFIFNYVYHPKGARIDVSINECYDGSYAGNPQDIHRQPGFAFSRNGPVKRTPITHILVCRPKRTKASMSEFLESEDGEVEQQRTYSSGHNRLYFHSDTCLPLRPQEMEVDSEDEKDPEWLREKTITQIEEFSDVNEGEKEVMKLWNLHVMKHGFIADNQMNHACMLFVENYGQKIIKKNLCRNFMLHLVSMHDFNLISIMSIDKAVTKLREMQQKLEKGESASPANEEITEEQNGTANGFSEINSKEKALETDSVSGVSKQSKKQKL
Description: as §1

Each structure is given as a SMILES string.

Sequence of EZH2 (Q15910 whole entry): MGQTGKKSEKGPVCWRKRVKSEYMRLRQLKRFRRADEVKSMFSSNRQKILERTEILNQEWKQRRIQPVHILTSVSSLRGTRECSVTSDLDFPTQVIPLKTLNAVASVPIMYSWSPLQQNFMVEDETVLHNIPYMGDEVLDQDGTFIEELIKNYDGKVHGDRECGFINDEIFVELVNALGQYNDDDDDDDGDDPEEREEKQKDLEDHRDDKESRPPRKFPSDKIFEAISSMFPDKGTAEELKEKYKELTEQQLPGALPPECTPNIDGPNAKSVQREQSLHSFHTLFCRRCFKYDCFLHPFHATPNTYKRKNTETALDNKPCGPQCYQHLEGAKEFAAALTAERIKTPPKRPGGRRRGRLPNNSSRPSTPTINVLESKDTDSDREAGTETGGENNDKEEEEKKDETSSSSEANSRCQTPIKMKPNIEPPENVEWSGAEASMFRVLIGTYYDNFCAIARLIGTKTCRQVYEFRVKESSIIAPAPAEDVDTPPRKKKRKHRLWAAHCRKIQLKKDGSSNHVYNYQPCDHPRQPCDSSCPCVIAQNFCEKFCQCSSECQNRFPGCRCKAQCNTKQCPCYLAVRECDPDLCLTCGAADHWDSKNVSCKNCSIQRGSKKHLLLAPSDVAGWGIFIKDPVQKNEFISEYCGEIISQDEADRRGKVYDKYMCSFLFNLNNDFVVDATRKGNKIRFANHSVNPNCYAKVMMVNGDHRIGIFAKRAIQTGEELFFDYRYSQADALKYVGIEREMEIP
Sequence of EZH2 (O75530 whole entry partner): as the sequence (O75530 whole entry partner) above
Sequence of EZH2 (Q15022 whole entry partner): as the sequence (Q15022 whole entry partner) above

In the case of `C=CC(=O)N(c1cc(-c2ccc(N3CCN(C)CC3)nc2)cc(C(=O)NCc2c(CCC)cc(C)[nH]c2=O)c1C)C1CCOCC1` [EZ-53], on EZH2, the inhibitory activity entry is reported as “high potency”, the mode of inhibition entry is “irreversible inhibitor” and the time dependence result was “time dependency”. For the same compound, on EZH1, the inhibitory activity entry is recorded as “high potency”, the mode of inhibition result is given as “irreversible inhibitor” and the time dependence entry was “time dependency”.
